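GI50 = concentration required for 50% inhibition of growth. TGI is the concentration that stops growth completely.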
What was measured:
Assay in all cases: NCI-60 cell line screen, 384-well format
OVCAR-8 ovarian = test system: OVCAR-8 ovarian
BT-549 breast = test system: BT-549 breast
SN12C renal = test system: SN12C renal
M14 melanoma = test system: M14 melanoma
IGROV1 ovarian = test system: IGROV1 ovarian
OVCAR-5 ovarian = test system: OVCAR-5 ovarian
NCI-H226 lung = test system: NCI-H226 lung
DU-145 prostate = test system: DU-145 prostate
EKVX NSCLC = test system: EKVX NSCLC
UACC-62 melanoma = test system: UACC-62 melanoma
RPMI-8226 leukemia = test system: RPMI-8226 leukemia
OVCAR-3 ovarian = test system: OVCAR-3 ovarian
SF-295 CNS = test system: SF-295 CNS
HCC-2998 colon = test system: HCC-2998 colon
HOP-92 NSCLC = test system: HOP-92 NSCLC
MOLT-4 leukemia = test system: MOLT-4 leukemia
LOX IMVI melanoma = test system: LOX IMVI melanoma
UACC-257 melanoma = test system: UACC-257 melanoma
KM12 colon = test system: KM12 colon
NCI-H322M lung = test system: NCI-H322M lung
RXF 393 renal = test system: RXF 393 renal
TK-10 renal = test system: TK-10 renal
HS 578T breast = test system: HS 578T breast
COLO 205 colon = test system: COLO 205 colon
T-47D breast = test system: T-47D breast
CAKI-1 renal = test system: CAKI-1 renal
MCF7 breast = test system: MCF7 breast
HCT-15 colon = test system: HCT-15 colon
SK-OV-3 ovarian = test system: SK-OV-3 ovarian
NCI/ADR-RES ovarian = test system: NCI/ADR-RES ovarian
SK-MEL-28 melanoma = test system: SK-MEL-28 melanoma
MDA-MB-435 melanoma = test system: MDA-MB-435 melanoma
UO-31 renal = test system: UO-31 renal
HCT-116 colon = test system: HCT-116 colon
SNB-19 CNS = test system: SNB-19 CNS
SNB-75 CNS = test system: SNB-75 CNS
OVCAR-4 ovarian = test system: OVCAR-4 ovarian
MALME-3M melanoma = test system: MALME-3M melanoma
NCI-H460 NSCLC = test system: NCI-H460 NSCLC
MDA-MB-231 breast = test system: MDA-MB-231 breast
786-0 renal = test system: 786-0 renal
ACHN renal = test system: ACHN renal
HL-60(TB) leukemia = test system: HL-60(TB) leukemia
CCRF-CEM leukemia = test system: CCRF-CEM leukemia
K-562 leukemia = test system: K-562 leukemia
HOP-62 NSCLC = test system: HOP-62 NSCLC
HT29 colon = test system: HT29 colon
SK-MEL-5 melanoma = test system: SK-MEL-5 melanoma
A498 renal = test system: A498 renal
NCI-H522 lung = test system: NCI-H522 lung
NCI-H23 lung = test system: NCI-H23 lung
A549 NSCLC = test system: A549 NSCLC
PC-3 prostate = test system: PC-3 prostate

Compound: COc1cc(S(C)(=O)=O)ccc1Nc1nc2ccc(-c3ccc(NC(=O)[C@H](C)c4ccc(F)cc4)cc3)cn2n1
- GI50 (OVCAR-8 ovarian): 1.19 µM
- TGI (OVCAR-8 ovarian): > 100 µM
- GI50 (BT-549 breast): 32.5 µM
- TGI (BT-549 breast): > 100 µM
- GI50 (SN12C renal): > 100 µM
- TGI (SN12C renal): > 100 µM
- GI50 (M14 melanoma): > 100 µM
- TGI (M14 melanoma): > 100 µM
- GI50 (IGROV1 ovarian): > 100 µM
- TGI (IGROV1 ovarian): > 100 µM
- GI50 (OVCAR-5 ovarian): > 100 µM
- TGI (OVCAR-5 ovarian): > 100 µM
- GI50 (NCI-H226 lung): > 100 µM
- TGI (NCI-H226 lung): > 100 µM
- GI50 (DU-145 prostate): 5.41 µM
- TGI (DU-145 prostate): > 100 µM
- GI50 (EKVX NSCLC): > 100 µM
- TGI (EKVX NSCLC): > 100 µM
- GI50 (UACC-62 melanoma): > 100 µM
- TGI (UACC-62 melanoma): > 100 µM
- GI50 (RPMI-8226 leukemia): 0.137 µM
- TGI (RPMI-8226 leukemia): > 100 µM
- GI50 (OVCAR-3 ovarian): > 100 µM
- TGI (OVCAR-3 ovarian): > 100 µM
- GI50 (SF-295 CNS): > 100 µM
- TGI (SF-295 CNS): > 100 µM
- GI50 (HCC-2998 colon): > 100 µM
- TGI (HCC-2998 colon): > 100 µM
- GI50 (HOP-92 NSCLC): 42.1 µM
- TGI (HOP-92 NSCLC): > 100 µM
- GI50 (MOLT-4 leukemia): 0.0201 µM
- TGI (MOLT-4 leukemia): 0.0417 µM
- GI50 (LOX IMVI melanoma): 0.053 µM
- TGI (LOX IMVI melanoma): > 100 µM
- GI50 (UACC-257 melanoma): > 100 µM
- TGI (UACC-257 melanoma): > 100 µM
- GI50 (KM12 colon): 61.7 µM
- TGI (KM12 colon): > 100 µM
- GI50 (NCI-H322M lung): > 100 µM
- TGI (NCI-H322M lung): > 100 µM
- GI50 (RXF 393 renal): 0.0742 µM
- TGI (RXF 393 renal): 6.48 µM
- GI50 (TK-10 renal): > 100 µM
- TGI (TK-10 renal): > 100 µM
- GI50 (HS 578T breast): 17.4 µM
- TGI (HS 578T breast): > 100 µM
- GI50 (COLO 205 colon): 0.0428 µM
- TGI (COLO 205 colon): > 100 µM
- GI50 (T-47D breast): 4.78 µM
- TGI (T-47D breast): > 100 µM
- GI50 (CAKI-1 renal): > 100 µM
- TGI (CAKI-1 renal): > 100 µM
- GI50 (MCF7 breast): 4.61 µM
- TGI (MCF7 breast): > 100 µM
- GI50 (HCT-15 colon): 0.0587 µM
- TGI (HCT-15 colon): > 100 µM
- GI50 (SK-OV-3 ovarian): > 100 µM
- TGI (SK-OV-3 ovarian): > 100 µM
- GI50 (NCI/ADR-RES ovarian): 1.4 µM
- TGI (NCI/ADR-RES ovarian): > 100 µM
- GI50 (SK-MEL-28 melanoma): > 100 µM
- TGI (SK-MEL-28 melanoma): > 100 µM
- GI50 (MDA-MB-435 melanoma): > 100 µM
- TGI (MDA-MB-435 melanoma): > 100 µM
- GI50 (UO-31 renal): 22.4 µM
- TGI (UO-31 renal): > 100 µM
- GI50 (HCT-116 colon): 0.0642 µM
- TGI (HCT-116 colon): > 100 µM
- GI50 (SNB-19 CNS): > 100 µM
- TGI (SNB-19 CNS): > 100 µM
- GI50 (SNB-75 CNS): 75.9 µM
- TGI (SNB-75 CNS): > 100 µM
- GI50 (OVCAR-4 ovarian): > 100 µM
- TGI (OVCAR-4 ovarian): > 100 µM
- GI50 (MALME-3M melanoma): 58.2 µM
- TGI (MALME-3M melanoma): > 100 µM
- GI50 (NCI-H460 NSCLC): 0.0406 µM
- TGI (NCI-H460 NSCLC): > 100 µM
- GI50 (MDA-MB-231 breast): > 100 µM
- TGI (MDA-MB-231 breast): > 100 µM
- GI50 ([…]-0 renal): 1.73 µM
- TGI (786-0 renal): > 100 µM
- GI50 (ACHN renal): > 100 µM
- TGI (ACHN renal): > 100 µM
- GI50 (HL-60(TB) leukemia): 0.0454 µM
- TGI (HL-60(TB) leukemia): > 100 µM
- GI50 (CCRF-CEM leukemia): 0.0293 µM
- TGI (CCRF-CEM leukemia): 0.0694 µM
- GI50 (K-562 leukemia): 0.777 µM
- TGI (K-562 leukemia): > 100 µM
- GI50 (HOP-62 NSCLC): 0.0771 µM
- TGI (HOP-62 NSCLC): > 100 µM
- GI50 (HT29 colon): 0.602 µM
- TGI (HT29 colon): > 100 µM
- GI50 (SK-MEL-5 melanoma): 1.54 µM
- TGI (SK-MEL-5 melanoma): > 100 µM
- GI50 (A498 renal): > 100 µM
- TGI (A498 renal): > 100 µM
- GI50 (NCI-H522 lung): > 100 µM
- TGI (NCI-H522 lung): > 100 µM
- GI50 (NCI-H23 lung): > 100 µM
- TGI (NCI-H23 lung): > 100 µM
- GI50 (A549 NSCLC): 0.0517 µM
- TGI (A549 NSCLC): > 100 µM
- GI50 (PC-3 prostate): 69 µM
- TGI (PC-3 prostate): > 100 µM

From PubChem BioAssay (NCI)
